Tested on: human SOD1 promoter
Experiment: SOD1 promoter-EGFP reporter high through-put screening assay in stably transfected PC12 cells
Format: cell-based, rat
Conditions: PC12 stable cell line treated 24 hrs with increasing mitomycin C concentration; FIG. 2
Source text: We have developed a cell-based, fluorescent high through-put screening assay to identify compounds that reduce SOD1 expression using a stable rat pheochromocytoma PC12 cell line with 2.2 kb of human SOD1 promoter sequence driving EGFP expression (FIG. 1).
The human SOD1 promoter was amplified by PCR from a control DNA sample using primers 5′ […] 3′ (SEQ ID NO:3) and 5′ […] 3′ (SEQ ID NO:4). Restriction sites were incorporated into the primers although these were not used for the cloning but to aid transfer into additional vectors in the future. PCR reactions were carried out in a final volume of 40 μl on a thermocycler (Hybaid). PCR reactions contained a final concentration of 3 U Taq polymerase (New England Biolabs, Beverly, Mass.), 150 ng of DNA, 1×PCR buffer, […] of each dNTP, 40 pmoles of forward and reverse primers (MWG-Biotech, High Point, N.C.), 2.5 mM MgCl2, and 5% DMSO. […]
Initial testing of the assay has been carried out using a known inhibitor of SOD1 expression, mitomycin C (Cho C., et al., (1997), The transcriptional repression of the human Cu/Zn superoxide dismutase(sod1) gene by the anticancer drug, mitomycin C(MMC), Biochem Mol Biol Int., 42:949-56). […] The level of EGFP fluorescence was read on a Wallac plate reader (Perkin Elmer, Boston, Mass.) (excitation 485 nm, emission 535 nm). […]

## CO[C@@]12[C@H](COC(N)=O)C3=C(C(=O)C(C)=C(N)C3=O)N1C[C@@H]1N[C@@H]12 [mitomycin C]
  EGFP fluorescence (relative expression level): progressive decrease in fluorescence

From patent US20050202488A1, “Assay for therapies that inhibit expression of the cytosolic Cu/Zn superoxide dismutase (SOD1) gene” (The General Hospital Corporation, priority 2004, published 2005)
